Data as given in paper doi:10.1101/2024.09.05.611349v1 (biorxiv, 2024).
Values after ≈ are worked out from the molar mass of the structure shown. Where two headings read alike, the source gives them in different places. One block for each compound: values may come before it.

Assays:
[1] = tested on: Enterococcus faecalis EFA 15-1; experiment: microbe, parasite or virus in culture; design: species or system gram-positive clinical isolates; conditions: Enterococcus faecalis
[2] = tested on: Enterococcus faecalis EFA 15-58; experiment: microbe, parasite or virus in culture; design: species or system gram-positive clinical isolates; conditions: Enterococcus faecalis
[3] = tested on: Enterococcus faecalis EFA 15-60; experiment: microbe, parasite or virus in culture; design: species or system gram-positive clinical isolates; conditions: Enterococcus faecalis
[4] = tested on: Enterococcus faecalis EFA 15-68; experiment: microbe, parasite or virus in culture; design: species or system gram-positive clinical isolates; conditions: Enterococcus faecalis
[5] = tested on: Enterococcus faecium EFM 15-11; experiment: microbe, parasite or virus in culture; design: species or system gram-positive clinical isolates; conditions: Enterococcus faecium
[6] = tested on: Enterococcus faecium EFM 15-1; experiment: microbe, parasite or virus in culture; design: species or system gram-positive clinical isolates; conditions: Enterococcus faecium
[7] = tested on: Enterococcus faecium EFM 15-2; experiment: microbe, parasite or virus in culture; design: species or system gram-positive clinical isolates; conditions: Enterococcus faecium
[8] = tested on: Enterococcus faecium EFM 15-52; experiment: microbe, parasite or virus in culture; design: species or system gram-positive clinical isolates; conditions: Enterococcus faecium
[9] = tested on: Enterococcus faecium EFM 15-8; experiment: microbe, parasite or virus in culture; design: species or system gram-positive clinical isolates; conditions: Enterococcus faecium
[10] = tested on: Staphylococcus aureus MRSA 15-1; experiment: microbe, parasite or virus in culture; design: species or system gram-positive clinical isolates; conditions: Staphylococcus aureus, MRSA
[11] = tested on: Staphylococcus aureus MRSA 15-3; experiment: microbe, parasite or virus in culture; design: species or system gram-positive clinical isolates; conditions: Staphylococcus aureus, MRSA
[12] = tested on: Staphylococcus aureus MRSA 16-1; experiment: microbe, parasite or virus in culture; design: species or system gram-positive clinical isolates; conditions: Staphylococcus aureus, MRSA
[13] = tested on: Staphylococcus aureus MRSA 16-2; experiment: microbe, parasite or virus in culture; design: species or system gram-positive clinical isolates; conditions: Staphylococcus aureus, MRSA
[14] = tested on: Staphylococcus aureus MRSA 17-1; experiment: microbe, parasite or virus in culture; design: species or system gram-positive clinical isolates; conditions: Staphylococcus aureus, MRSA
[15] = tested on: Staphylococcus aureus MRSA 17-2; experiment: microbe, parasite or virus in culture; design: species or system gram-positive clinical isolates; conditions: Staphylococcus aureus, MRSA
[16] = tested on: Staphylococcus aureus MRSA 17-4; experiment: microbe, parasite or virus in culture; design: species or system gram-positive clinical isolates; conditions: Staphylococcus aureus, MRSA
[17] = tested on: Staphylococcus aureus MRSA 17-5; experiment: microbe, parasite or virus in culture; design: species or system gram-positive clinical isolates; conditions: Staphylococcus aureus, MRSA
[18] = tested on: Staphylococcus aureus MRSA 17-7; experiment: microbe, parasite or virus in culture; design: species or system gram-positive clinical isolates; conditions: Staphylococcus aureus, MRSA
[19] = tested on: Staphylococcus aureus MSSA 15-6; experiment: microbe, parasite or virus in culture; design: species or system gram-positive clinical isolates; conditions: Staphylococcus aureus, MSSA
[20] = tested on: Staphylococcus aureus MSSA 16-2; experiment: microbe, parasite or virus in culture; design: species or system gram-positive clinical isolates; conditions: Staphylococcus aureus, MSSA
[21] = tested on: Staphylococcus epidermidis MRSE 15-3; experiment: microbe, parasite or virus in culture; design: species or system gram-positive clinical isolates; conditions: Staphylococcus epidermidis, MRSE
[22] = tested on: Staphylococcus epidermidis MRSE 15-78; experiment: microbe, parasite or virus in culture; design: species or system gram-positive clinical isolates; conditions: Staphylococcus epidermidis, MRSE
[23] = tested on: Staphylococcus epidermidis MRSE 15-82; experiment: microbe, parasite or virus in culture; design: species or system gram-positive clinical isolates; conditions: Staphylococcus epidermidis, MRSE
[24] = tested on: Staphylococcus epidermidis MSSE 15-3; experiment: microbe, parasite or virus in culture; design: species or system gram-positive clinical isolates; conditions: Staphylococcus epidermidis, MSSE153, read-out: MIC(μg/ml) / 1b
[25] = tested on: Staphylococcus epidermidis MSSE 15-58; experiment: microbe, parasite or virus in culture; design: species or system gram-positive clinical isolates; conditions: Staphylococcus epidermidis, MSSE1558, read-out: MIC(μg/ml) / 1b
[26] = in vitro; conditions: mouse, liver microsomes
[27] = read-out: MIC(μg/ml) / vancomycin

Compound: CCCCCOc1ccc(C(=O)NNC(=S)NC(C)=O)cc1 [1b, N-(2-(4-(n-pentoxy)benzoyl)hydrazine-1-carbonothioyl)acetamide]
- MIC ([1]; EFA151, read-out: MIC(μg/ml) / 1b): 8 µg/mL (≈ 24.7 µM)
- MIC ([2]; EFA1558, read-out: MIC(μg/ml) / 1b): 4 µg/mL (≈ 12.4 µM)
- MIC ([3]; EFA1560, read-out: MIC(μg/ml) / 1b): 8 µg/mL (≈ 24.7 µM)
- MIC ([4]; EFA1568, read-out: MIC(μg/ml) / 1b): 4 µg/mL (≈ 12.4 µM)
- MIC ([5]; EFM1511, read-out: MIC(μg/ml) / 1b): 4 µg/mL (≈ 12.4 µM)
- MIC ([6]; EFM151, read-out: MIC(μg/ml) / 1b): 8 µg/mL (≈ 24.7 µM)
- MIC ([7]; EFM152, read-out: MIC(μg/ml) / 1b): 4 µg/mL (≈ 12.4 µM)
- MIC ([8]; EFM1552, read-out: MIC(μg/ml) / 1b): 8 µg/mL (≈ 24.7 µM)
- MIC ([9]; EFM158, read-out: MIC(μg/ml) / 1b): 2 µg/mL (≈ 6.18 µM)
- MIC ([10]; read-out: MIC(μg/ml) / 1b): 4 µg/mL (≈ 12.4 µM)
- MIC ([11]; read-out: MIC(μg/ml) / 1b): 4 µg/mL (≈ 12.4 µM)
- MIC ([12]; read-out: MIC(μg/ml) / 1b): 2 µg/mL (≈ 6.18 µM)
- MIC ([13]; read-out: MIC(μg/ml) / 1b): 2 µg/mL (≈ 6.18 µM)
- MIC ([14]; read-out: MIC(μg/ml) / 1b): 2 µg/mL (≈ 6.18 µM)
- MIC ([15]; read-out: MIC(μg/ml) / 1b): 4 µg/mL (≈ 12.4 µM)
- MIC ([16]; read-out: MIC(μg/ml) / 1b): 2 µg/mL (≈ 6.18 µM)
- MIC ([17]; read-out: MIC(μg/ml) / 1b): 2 µg/mL (≈ 6.18 µM)
- MIC ([18]; read-out: MIC(μg/ml) / 1b): 2 µg/mL (≈ 6.18 µM)
- MIC ([19]; read-out: MIC(μg/ml) / 1b): 2 µg/mL (≈ 6.18 µM)
- MIC ([20]; read-out: MIC(μg/ml) / 1b): 1 µg/mL (≈ 3.09 µM)
- MIC ([21]; read-out: MIC(μg/ml) / 1b): 2 µg/mL (≈ 6.18 µM)
- MIC ([22]; read-out: MIC(μg/ml) / 1b): 2 µg/mL (≈ 6.18 µM)
- MIC ([23]; read-out: MIC(μg/ml) / 1b): 1 µg/mL (≈ 3.09 µM)
- MIC [24]: 1 µg/mL (≈ 3.09 µM)
- MIC [25]: 1 µg/mL (≈ 3.09 µM)
- microsomal CLint [26]: 49 µL/min/mg

- MIC ([1]; EFA151, read-out: MIC(μg/ml) / vancomycin): 0.5 µg/mL (≈ 0.345 µM)
- MIC ([2]; EFA1558, read-out: MIC(μg/ml) / vancomycin): 0.5 µg/mL (≈ 0.345 µM)
- MIC ([3]; EFA1560, read-out: MIC(μg/ml) / vancomycin): 8 µg/mL (≈ 5.52 µM)
- MIC ([4]; EFA1568, read-out: MIC(μg/ml) / vancomycin): 0.5 µg/mL (≈ 0.345 µM)
- MIC ([5]; EFM1511, read-out: MIC(μg/ml) / vancomycin): 0.5 µg/mL (≈ 0.345 µM)
- MIC ([6]; EFM151, read-out: MIC(μg/ml) / vancomycin): 1 µg/mL (≈ 0.69 µM)
- MIC ([7]; EFM152, read-out: MIC(μg/ml) / vancomycin): 2 µg/mL (≈ 1.38 µM)
- MIC ([8]; EFM1552, read-out: MIC(μg/ml) / vancomycin): 2 µg/mL (≈ 1.38 µM)
- MIC ([9]; EFM158, read-out: MIC(μg/ml) / vancomycin): 0.5 µg/mL (≈ 0.345 µM)
- MIC [10, 27]: 2 µg/mL (≈ 1.38 µM)
- MIC [11, 27]: 1 µg/mL (≈ 0.69 µM)
- MIC [12, 27]: 1 µg/mL (≈ 0.69 µM)
- MIC [13, 27]: 1 µg/mL (≈ 0.69 µM)
- MIC [14, 27]: 0.5 µg/mL (≈ 0.345 µM)
- MIC [15, 27]: 0.5 µg/mL (≈ 0.345 µM)
- MIC [16, 27]: 1 µg/mL (≈ 0.69 µM)
- MIC [17, 27]: 0.5 µg/mL (≈ 0.345 µM)
- MIC [18, 27]: 0.25 µg/mL (≈ 0.173 µM)
- MIC [19, 27]: 0.5 µg/mL (≈ 0.345 µM)
- MIC [20, 27]: 0.5 µg/mL (≈ 0.345 µM)
- MIC [21, 27]: 2 µg/mL (≈ 1.38 µM)
- MIC [22, 27]: 1 µg/mL (≈ 0.69 µM)
- MIC [23, 27]: 1 µg/mL (≈ 0.69 µM)
Compound: CN[C@H](CC(C)C)C(=O)N[C@H]1C(=O)N[C@@H](CC(N)=O)C(=O)N[C@H]2C(=O)N[C@H]3C(=O)N[C@H](C(=O)N[C@H](C(=O)O)c4cc(O)cc(O)c4-c4cc3ccc4O)[C@H](O)c3ccc(c(Cl)c3)Oc3cc2cc(c3O[C@@H]2O[C@H](CO)[C@@H](O)[C@H](O)[C@H]2O[C@H]2C[C@](C)(N)[C@H](O)[C@H](C)O2)Oc2ccc(cc2Cl)[C@H]1O [vancomycin]
